These are literature values, as cited in patent publication US20110105443A1, “SALTS OF MEMANTINE AND COX-INHIBITORS AND THEIR CRYSTAL FORM IN THE TREATMENT OF PAIN” (LABORATORIES DEL DR. ESTEVE, S.A., priority 2008, published 2011).

For this data set the following is noted: stated property of the free drug (base or acid), no method given.

In general, pKa refers to the pH at which an ionisable group is half protonated. Take `CC(=O)Oc1cc(C(F)(F)F)ccc1C(=O)O` [Triflusal, 2-acetoxy-4-trifluoromethyl-benzoic acid]: the pKa is 3.34.
